pKi: −log10 of the molar value.
How the values were obtained:
[1] = molecular target: T1, D2 dopamine receptors (Rattus norvegicus, UniProt P61169); assay: inhibition of tritiated (S)-sulpiride binding to D2 dopamine receptors in rat striatal tissue; details: rat striatum; for pKi: tritiated (S)-sulpiride 1 nM, 4° C., 40 min; for inhibition at 1 µM: at 10^-6 M, tritiated (S)-sulpiride, read-out: % displacement of radio ligand, D2
T1 construct: Striatal tissue from the brains of male Charles River CD rats; from tissue; host or cells: rat striatum membranes
Method: Striatal tissue from the brains of male Charles River CD rats weighing between 140-250 g were homogenised in ice-cold 50 mM Tris-HCl buffer (pH 7.7 when measured at 25° C.) and centrifuged at 40,000 g for 10 minutes. The pellet was resuspended in Tris salts buffer (50 mM Tris-HCl buffer containing 120 mM NaCl, 5 mM KCl, 2 mM CaCl2 and 1 mM MgCl2 with the addition of 6 mM ascorbic acid; pH 7.7 when measured at 25° C.), and again centrifuged at 40,000 g for 10 minutes. The final pellet was stored at -80° C. Before each test the pellet was resuspended in Tris salts buffer (equivalent to 2 mg wet weight of tissue/ml). Aliquots (720 μl; equivalent to 1.44 mg wet weight of tissue/tube) of this suspension were then added to tubes containing the ligand (40 μl; 1 nM) and Tris salts buffer (40 μl; total binding) or spiroperidol (40 μl; 10 nM; non-specific binding) or test compound (40 μl; at a single concentration of 10^-6 M or at 6 concentrations ranging from 10^-11 -10^-4 M). The ligand was tritiated (S)-sulpiride and the mixture was incubated at 4° C. for 40 minutes before the incubation was terminated by rapid filtration.
The filters were washed with ice-cold Tris-HCl buffer and dried. The filters were punched out in to vials, scintillation fluid added and were left for about 20 hours before being counted by scintillation spectrophotometry. The percentage displacement of specific binding of the tritiated ligand was calculated for the single concentration (10^-6 M) of test compound. Displacement curves were then produced over a range of concentrations for those compounds which displaced ≥50% of specific binding of the tritiated ligand at 10^-6 M. The concentration which gave a 50% inhibition of specific binding (IC50) was obtained from the curve. The inhibition coefficient Ki was then calculated using the formula [formula] in [ligand] is the concentration of the tritiated ligand used and KD is the 2 equilibrium dissociation constant for the ligand.

[2] = molecular target: T2, α2D-adrenoceptors (Rattus norvegicus, UniProt P22909); assay: inhibition of tritiated idazoxan binding to α2D-adrenoceptors in rat frontal cortical tissue; details: rat frontal cortex; for pKi: tritiated idazoxan 1 nM, 0° C., 75 min; for inhibition at 1 µM: at 10^-6 M, tritiated idazoxan, read-out: % displacement of radio ligand, α2D
T2 construct: Frontal cortical tissue from the brains of male Charles River CD rats; from tissue; host or cells: rat frontal cortex membranes
T2 sequence (P22909 1-465): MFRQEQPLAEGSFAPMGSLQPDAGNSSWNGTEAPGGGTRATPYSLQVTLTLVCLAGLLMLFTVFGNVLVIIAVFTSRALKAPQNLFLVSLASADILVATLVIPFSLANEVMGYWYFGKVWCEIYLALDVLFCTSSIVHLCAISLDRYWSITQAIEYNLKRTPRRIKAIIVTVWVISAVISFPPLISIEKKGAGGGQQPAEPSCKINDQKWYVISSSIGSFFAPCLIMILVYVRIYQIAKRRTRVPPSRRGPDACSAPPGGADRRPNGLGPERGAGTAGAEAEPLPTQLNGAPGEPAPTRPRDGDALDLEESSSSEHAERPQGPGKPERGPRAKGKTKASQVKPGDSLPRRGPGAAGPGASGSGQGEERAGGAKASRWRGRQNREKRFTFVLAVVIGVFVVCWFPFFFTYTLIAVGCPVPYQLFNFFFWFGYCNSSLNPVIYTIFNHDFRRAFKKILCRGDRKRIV
Method: Frontal cortical tissue from the brains of male Charles River CD rats weighing between 150-250 g were homogenised in ice-cold 0.25 M sucrose (1:30 w/v) and centrifuged at 1,000 g at 4° C. for 12 minutes. The supernatant was stored on ice and the pellet was rehomogenised in 0.25 M sucrose (1:15 w/v) and centrifuged at 850 g at 4° C. for 12 minutes. Combined supernatants were diluted with 5 mM Tris-HCl (pH 7.5) containing 5 mM ethylenediamine tetraacetic acid (EDTA) readjusted to pH 7.5 (at 25° C.) with 1 M sodium hydroxide to 1:80 w/v, and centrifuged at 30,000 g at 4° C. for 10 minutes. The resulting pellet was resuspended in 50 mM Tris-HCl (pH 7.5) containing 5.68 mM L-ascorbic acid and 0.5 mM EDTA readjusted to pH 7.5 (at 25° C.) with 1 M sodium hydroxide, and centrifuged at 30,000 g for 10 minutes. The final pellet was resuspended in 50 mM Tris-HCl (pH 7.5) containing 5.68 mM L-ascorbic acid and 5 mM EDTA (equivalent to 12.5 mg wet weight of tissue/ml) and used immediately in the binding assay. Aliquots (400 μl; equivalent to 5 mg wet weight of tissue/tube) of this suspension were added to tubes containing the ligand (50 μl; 1 nM) and distilled water (50 μl; total binding) or phentolamine (50 μl; 5 μM; non-specificbinding) or test compound (50 μl; at a single concentration of 10^-6 M or at 10 concentrations ranging from 10^-11 -10^-3 M). The ligand was tritiated idazoxan ((1,4-[6,7(n)-^3 H]benzodioxan-2-yl)-2-imidazoline hydrochloride) and the mixture was incubated at 0° C. for 75 minutes before the incubation was terminated by rapid filtration.
The filters were washed with ice-cold Tris-HCl buffer and dried. The filters were punched out into vials, scintillation fluid added and radioactivity determined by liquid scintillation counting. […] Displacement curves were then produced for those compounds which displaced ≥50% of specific binding of the tritiated ligand at 10^-6 M using a range of concentrations of the compound. The concentration which gave 50% inhibition of specific binding (IC50) was obtained from the curve. The inhibition coefficient Ki was then calculated using the formula [formula] in which [ligand] is the concentration of the tritiated ligand used and KD is the equilibrium dissociation constant for the ligand.

T1 sequence (P61169 whole entry): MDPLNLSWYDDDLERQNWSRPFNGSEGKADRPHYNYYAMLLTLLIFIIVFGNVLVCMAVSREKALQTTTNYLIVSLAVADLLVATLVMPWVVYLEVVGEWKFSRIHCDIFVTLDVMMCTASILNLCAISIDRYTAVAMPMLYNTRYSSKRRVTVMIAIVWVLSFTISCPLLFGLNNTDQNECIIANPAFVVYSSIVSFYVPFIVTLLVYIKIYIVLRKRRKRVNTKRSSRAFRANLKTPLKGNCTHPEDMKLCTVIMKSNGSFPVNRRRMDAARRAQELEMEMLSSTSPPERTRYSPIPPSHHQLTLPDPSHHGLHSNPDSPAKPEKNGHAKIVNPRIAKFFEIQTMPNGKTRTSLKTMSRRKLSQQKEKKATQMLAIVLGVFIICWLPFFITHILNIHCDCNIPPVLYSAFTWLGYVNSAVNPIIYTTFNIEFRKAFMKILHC

Nc1ccsc1C(=O)NCC1CCN(C[C@H]2COc3ccc(Cl)cc3O2)CC1 [Example 17, (S)-3-amino-N-{[1-(7-chloro-1,4-benzodioxan-2-ylmethyl)-4-piperidyl]methyl}thiophene-2-carboxamide] was tested, and the pKi [1] was 7.44 and the pKi [2] was 7.57.

Compound Nc1ncccc1C(=O)NCC1CCN(C[C@H]2COc3ccccc3O2)CC1 [Example 15, (S)-2-amino-N-{[1-(1,4-benzodioxan-2-ylmethyl)-4-piperidyl]methyl}pyridine-3-carboxamide] has a pKi [1] of 7.19 and an inhibition at 1 µM [2] of 99%.

Work on O=C(NCC1CCN(CC2COc3ccccc3O2)CC1)c1ccccn1 (stereo not drawn) [Example 6, N-{[1-(1,4-benzodioxan-2-ylmethyl)-4-piperidyl]methyl}pyridine-2-carboxamide] yielded a pKi [1] of 7.17 and a pKi [2] of 8.36.

Work on Nc1ncccc1C(=O)NCC1CCN(C[C@H]2COc3cccc(F)c3O2)CC1 [Example 3, (S)-(-)-2-amino-N-{[1-(8-fluoro-1,4-benzodioxan-2-ylmethyl)-4-piperidyl]methyl}pyridine-3-carboxamide] yielded a pKi [1] of 7.48 and an inhibition at 1 µM [2] of 99%.

In the case of O=C(NCC1CCN(C[C@H]2COc3ccc(Cl)cc3O2)CC1)c1cccc2cccnc12 [Example 23, (S)-N-{[1-(7-chloro-1,4-benzodioxan-2-ylmethyl)-4-piperidyl]methyl}quinoline-8-carboxamide], the pKi [1] was 7.10 and the inhibition at 1 µM [2] was 95%.

Work on Cc1cccc2c1O[C@@H](CN1CCC(CNC(=O)c3cccnc3N)CC1)CO2 [Example 13, (S)-2-amino-N-{[1-(8-methyl-1,4-benzodioxan-2-ylmethyl)-4-piperidyl]methyl}pyridine-3-carboxamide] yielded a pKi [1] of 7.48 and an inhibition at 1 µM [2] of 99%.

Nc1ccsc1C(=O)NCC1CCN(CC2COc3ccccc3O2)CC1 (stereo not drawn) [Example 16, 3-amino-N-{[1-(1,4-benzodioxan-2-ylmethyl)-4-piperidyl]methyl}thiophene-2-carboxamide] was tested, and the pKi [1] was 7.17 and the inhibition at 1 µM [2] was 99%.

Compound Cc1ncccc1C(=O)NCC1CCN(C[C@H]2COc3ccc(Cl)cc3O2)CC1 [Example 18, (S)-N-{[1-(7-chloro-1,4-benzodioxan-2-ylmethyl)-4-piperidyl]methyl}-2-methylpyridine-3-carboxamide] has a pKi [1] of 6.96 and an inhibition at 1 µM [2] of 89%.

Nc1ncccc1C(=O)NCC1CCN(CC2COc3ccc(F)cc3O2)CC1 (stereo not drawn) [Example 10, 2-amino-N-{[1-(7-fluoro-1,4-benzodioxan-2-ylmethyl)-4-piperidyl]methyl}pyridine-3-carboxamide] gave a pKi [1] of 6.96 and a pKi [2] of 8.19.

Work on Nc1ncccc1C(=O)NCC1CCN(C[C@H]2COc3cccc(Cl)c3O2)CC1 [Example 2, (S)-2-amino-N-{[1-(8-chloro-1,4-benzodioxan-2-ylmethyl)-4-piperidyl]methyl}-pyridine-3-carboxamide] yielded an inhibition at 1 µM [1] of 104% and an inhibition at 1 µM [2] of 98%.

Nc1ncccc1C(=O)NCC1CCN(CC2COc3ccccc3O2)CC1 (stereo not drawn) [Example 4, 2-amino-N-{[1-(1,4-benzodioxan-2-ylmethyl)-4-piperidyl]methyl}pyridine-3-carboxamide] gave an inhibition at 1 µM [1] of 84% and an inhibition at 1 µM [2] of 98%.

Compound Cc1ncccc1C(=O)NCC1CCN(C[C@H]2COc3cccc(Cl)c3O2)CC1 [Example 9, (S)-N-{[1-(8-chloro-1,4-benzodioxan-2-ylmethyl)-4-piperidyl]methyl}-2-methylpyridine-3-carboxamide] has a pKi [1] of 7.43 and an inhibition at 1 µM [2] of 97%.

In the case of Cc1ccc2c(c1)O[C@@H](CN1CCC(CNC(=O)c3cccnc3N)CC1)CO2 [Example 5, (S)-2-amino-N-{[1-(7-methyl-1,4-benzodioxan-2-ylmethyl)-4-piperidyl]methyl}pyridine-3-carboxamide], the pKi [1] was 7.25 and the inhibition at 1 µM [2] was 96%.

In the case of O=C(NCC1CCN(C[C@H]2COc3ccc(Cl)cc3O2)CC1)c1ccccn1 [Example 12, (S)-N-{[1-(7-chloro-1,4-benzodioxan-2-ylmethyl)-4-piperidyl]methyl}pyridine-2-carboxamide], the pKi [1] was 7.68 and the inhibition at 1 µM [2] was 95%.

Compound Cc1ccc(C(=O)NCC2CCN(C[C@H]3COc4ccc(Cl)cc4O3)CC2)c(N)n1 [Example 14, (S)-2-amino-N-{[1-(7-chloro-1,4-benzodioxan-2-ylmethyl)-4-piperidyl]methyl}-6-methylpyridine-3-carboxamide] has a pKi [1] of 7.36 and an inhibition at 1 µM [2] of 97%.

Nc1ncccc1C(=O)NCC1CCN(C[C@H]2COc3ccc(Cl)cc3O2)CC1 [Example 1, (S)-(-)-2-amino-N-{[1-(7-chloro-1,4-benzodioxan-2-ylmethyl)-4-piperidyl]methyl}pyridine-3-carboxamide] gave a pKi [1] of 7.49 and an inhibition at 1 µM [2] of 97%.

Work on COc1cccc2c1OC(CN1CCC(CNC(=O)c3cccnc3N)CC1)CO2 (stereo not drawn) [Example 11, 2-amino-N-{[1-(8-methoxy-1,4-benzodioxan-2-ylmethyl)-4-piperidyl]methyl}pyridine-3-carboxamide] yielded a pKi [1] of 7.39 and an inhibition at 1 µM [2] of 98%.

In the case of O=C(NCC1CCN(CC2COc3ccccc3O2)CC1)c1cccc2cccnc12 (stereo not drawn) [Example 8, N-{[1-(1,4-benzodioxan-2-ylmethyl)-4-piperidyl]methyl}quinoline-8-carboxamide], the pKi [1] was 7.02 and the inhibition at 1 µM [2] was 100%.

In the case of COc1ccc2c(c1)O[C@@H](CN1CCC(CNC(=O)c3cccnc3N)CC1)CO2 [Example 7, (S)-2-amino-N{[1-(7-methoxy-1,4-benzodioxan-2-ylmethyl)-4-piperidyl]methyl}-pyridine-3-carboxamide], the pKi [1] was 6.71 and the pKi [2] was 8.44.

Compound O=C(NCC1CCN(C[C@H]2COc3ccc(Cl)cc3O2)CC1)c1cccnc1 [Example 22, (S)-N-{[1-(7-chloro-1,4-benzodioxan-2-ylmethyl)-4-piperidyl]methyl}pyridine-3-carboxamide] has a pKi [1] of 7.82 and an inhibition at 1 µM [2] of 99%.

Work on Nc1ncccc1C(=O)NCC1CCN(C[C@H]2COc3cccc(C(F)(F)F)c3O2)CC1 [Example 20, (S)-2-amino-N-{[1-(8-trifluoromethyl-1,4-benzodioxan-2-ylmethyl)-4-piperidyl]methyl}pyridine-3-carboxamide] yielded a pKi [1] of 7.92 and an inhibition at 1 µM [2] of 98%.
